Data as given in patent publication US8575201B2 (Boehringer Ingelheim International GmbH, priority 2010, dated 2013).

How the values were obtained:
[1] = system: synthesis of LTB4 in human whole blood; experiment: Human whole blood LTB4 production inhibition assay; type: cell-based; settings: calcimycin stimulated, read-out: hWB LTB4 IC50
How it was run: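 Heparinized human whole blood was preincubated with compound for 15 min at 37° C, then stimulated with calcimycin (20 μM final, in PBS pH 7.4) for a further 30 min at 37° C. Plasma LTB4 was quantified by antibody-based homogeneous time-resolved fluorescence.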

[2] = molecular target: recombinant human FLAP protein (Homo sapiens (Human), UniProt P20292); experiment: FLAP binding assay (Scintillation Proximity Assay, displacement of [125I]L-691,831); settings: read-out: FLAP SPA IC50
Sequence of recombinant human FLAP protein (P20292 whole entry): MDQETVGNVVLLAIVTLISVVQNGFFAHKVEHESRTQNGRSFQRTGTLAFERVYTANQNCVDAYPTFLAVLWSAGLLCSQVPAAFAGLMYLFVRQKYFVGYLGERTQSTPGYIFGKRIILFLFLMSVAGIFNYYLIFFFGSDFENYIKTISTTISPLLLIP
How it was run: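 Scintillation proximity displacement of an iodinated (125I) FLAP inhibitor by test compounds, using 100,000×g membrane fraction from lysed cells. Final beads 200 μg/well and protein 5 μg/well; plates shaken 2 h before reading.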

Compound: Nc1ncc(-c2ccc(C3(c4noc(-c5cnn(C(F)F)c5)n4)CCC3)cn2)cn1 [Example 66, 5-[5-(1-{5-[1-(difluoromethyl)-1H-pyrazol-4-yl]-1,2,4-oxadiazol-3-yl}cyclobutyl)pyridin-2-yl]pyrimidin-2-amine]
- IC50 [1]: 200 nM
- IC50 [2]: 7.4 nM

Compound: Nc1ncc(-c2ccc(C3(c4noc(-c5cnn(CCF)c5)n4)CCC3)cn2)cn1 [Example 67, 5-[5-(1-{5-[1-(2-fluoroethyl)-1H-pyrazol-4-yl]-1,2,4-oxadiazol-3-yl}cyclobutyl)pyridin-2-yl]pyrimidin-2-amine]
- IC50 [1]: 69 nM
- IC50 [2]: 9.5 nM

Compound: Nc1ncc(-c2ccc(C3(c4noc(-c5cnn(CC(F)F)c5)n4)CCC3)cn2)cn1 [Example 68, 5-[5-(1-{5-[1-(2,2-difluoroethyl)-1H-pyrazol-4-yl]-1,2,4-oxadiazol-3-yl}cyclobutyl)pyridin-2-yl]pyrimidin-2-amine]
- IC50 [1]: 160 nM
- IC50 [2]: 6.1 nM

Compound: Nc1ncc(-c2ccc(C3(c4noc(-c5cnn(CC(F)(F)F)c5)n4)CCC3)cn2)cn1 [Example 69, 5-[5-(1-{5-[1-(2,2,2-trifluoroethyl)-1H-pyrazol-4-yl]-1,2,4-oxadiazol-3-yl}cyclobutyl)pyridin-2-yl]pyrimidin-2-amine]
- IC50 [1]: 170 nM
- IC50 [2]: 7.6 nM

Compound: NC(=O)Cn1cc(-c2nc(C3(c4ccc(-c5cnc(N)nc5)nc4)CCC3)no2)cn1 [Example 70, 2-[4-(3-{1-[6-(2-aminopyrimidin-5-yl)pyridin-3-yl]cyclobutyl}-1,2,4-oxadiazol-5-yl)-1H-pyrazol-1-yl]acetamide]
- IC50 [1]: 2100 nM
- IC50 [2]: 150 nM

Compound: CS(=O)(=O)Cn1cc(-c2nc(C3(c4ccc(-c5cnc(N)nc5)nc4)CCC3)no2)cn1 [Example 71, 5-{5-[1-(5-{1-[(methylsulfonyl)methyl]-1H-pyrazol-4-yl}-1,2,4-oxadiazol-3-yl)cyclobutyl]pyridin-2-yl}pyrimidin-2-amine]
- IC50 [1]: 390 nM
- IC50 [2]: 58 nM

Compound: Nc1ncc(-c2ccc(C3(c4noc(-c5cccnc5)n4)CCOCC3)cn2)cn1 [Example 72, 5-(5-{4-[5-(pyridin-3-yl)-1,2,4-oxadiazol-3-yl]tetrahydro-2H-pyran-4-yl}pyridin-2-yl)pyrimidin-2-amine]
- IC50 [1]: 2300 nM
- IC50 [2]: 610 nM

Compound: Nc1ncc(-c2ccc(C3(c4noc(-c5cccnc5)n4)CCC3)cn2)cn1 [Example 73, 5-{5-[1-(5-Pyridin-3-yl-1,2,4-oxadiazol-3-yl)-cyclobutyl]-pyridin-2-yl}-pyrimidin-2-ylamine]
- IC50 [1]: 460 nM
- IC50 [2]: 25 nM

Compound: Cc1ccc(-c2nc(C3(c4ccc(-c5cnc(N)nc5)nc4)CCC3)no2)cn1 [Example 74, 5-(5-{1-[5-(6-methylpyridin-3-yl)-1,2,4-oxadiazol-3-yl]cyclobutyl}pyridin-2-yl)pyrimidin-2-amine]
- IC50 [1]: 210 nM
- IC50 [2]: 4.5 nM

Compound: Nc1ncc(-c2ccc(C3(c4noc(-c5c[nH]cn5)n4)CCC3)cn2)cn1 [Example 75, 5-(5-{1-[5-(1H-imidazol-4-yl)-1,2,4-oxadiazol-3-yl]cyclobutyl}pyridin-2-yl)pyrimidin-2-amine]
- IC50 [1]: 580 nM
- IC50 [2]: 19 nM

Compound: Nc1ncc(-c2ccc(C3(c4noc(N5CCCC5)n4)CCC3)cn2)cn1 [Example 76, 5-(5-{1-[5-(pyrrolidin-1-yl)-1,2,4-oxadiazol-3-yl]cyclobutyl}pyridin-2-yl)pyrimidin-2-amine]
- IC50 [1]: 920 nM
- IC50 [2]: 92 nM

Compound: Cn1cccc(-c2nc(C3(c4ccc(-c5cnc(N)nc5)nc4)CCC3)no2)c1=O [Example 77, 3-(3-{1-[6-(2-aminopyrimidin-5-yl)pyridin-3-yl]cyclobutyl}-1,2,4-oxadiazol-5-yl)-1-methylpyridin-2(1H)-one]
- IC50 [1]: 490 nM
- IC50 [2]: 51 nM

Compound: Cc1n[nH]cc1-c1nc(C2(c3ccc(-c4cnc(N)nc4)nc3)CCC2)no1 [Example 78, 5-(5-{1-[5-(3-methyl-1H-pyrazol-4-yl)-1,2,4-oxadiazol-3-yl]cyclobutyl}pyridin-2-yl)pyrimidin-2-amine]
- IC50 [1]: 220 nM
- IC50 [2]: 4.7 nM

Compound: Cc1cc(-c2nc(C3(c4ccc(-c5cnc(N)nc5)nc4)CCC3)no2)[nH]n1 [Example 80, 5-(5-{1-[5-(3-methyl-1H-pyrazol-5-yl)-1,2,4-oxadiazol-3-yl]cyclobutyl}pyridin-2-yl)pyrimidin-2-amine]
- IC50 [1]: 160 nM
- IC50 [2]: 5.5 nM

Compound: COC(=O)c1ccc(-c2nc(C3(c4ccc(-c5cnc(N)nc5)nc4)CCC3)no2)cn1 [Example 81, methyl 5-(3-{1-[6-(2-aminopyrimidin-5-yl)pyridin-3-yl]cyclobutyl}-1,2,4-oxadiazol-5-yl)pyridine-2-carboxylate]
- IC50 [1]: 790 nM
- IC50 [2]: 25 nM

Compound: CC(C)(O)c1ccc(-c2nc(C3(c4ccc(-c5cnc(N)nc5)nc4)CCC3)no2)cn1 [Example 82, 2-[5-(3-{1-[6-(2-aminopyrimidin-5-yl)pyridin-3-yl]cyclobutyl}-1,2,4-oxadiazol-5-yl)pyridin-2-yl]propan-2-ol]
- IC50 [1]: 480 nM
- IC50 [2]: 17 nM

Compound: N#Cc1ccc(-c2nc(C3(c4ccc(-c5cnc(N)nc5)nc4)CCC3)no2)cn1 [Example 83, 5-(3-{1-[6-(2-aminopyrimidin-5-yl)pyridin-3-yl]cyclobutyl}-1,2,4-oxadiazol-5-yl)pyridine-2-carbonitrile]
- IC50 [1]: 410 nM
- IC50 [2]: 52 nM

Compound: Nc1ncc(-c2ccc(C3(c4noc(-c5cccnc5Cl)n4)CCC3)cn2)cn1 [Example 84, 5-(5-{1-[5-(2-chloropyridin-3-yl)-1,2,4-oxadiazol-3-yl]cyclobutyl}pyridin-2-yl)pyrimidin-2-amine]
- IC50 [1]: 280 nM
- IC50 [2]: 4.1 nM

Compound: Cc1ncccc1-c1nc(C2(c3ccc(-c4cnc(N)nc4)nc3)CCC2)no1 [Example 85, 5-(5-{1-[5-(2-methylpyridin-3-yl)-1,2,4-oxadiazol-3-yl]cyclobutyl}pyridin-2-yl)pyrimidin-2-amine]
- IC50 [1]: 1000 nM
- IC50 [2]: 21 nM

Compound: COc1ccncc1-c1nc(C2(c3ccc(-c4cnc(N)nc4)nc3)CCC2)no1 [Example 86, 5-(5-{1-[5-(4-methoxypyridin-3-yl)-1,2,4-oxadiazol-3-yl]cyclobutyl}pyridin-2-yl)pyrimidin-2-amine]
- IC50 [1]: 1100 nM
- IC50 [2]: 18 nM

Compound: Nc1ncc(-c2ccc(C3(c4noc(-c5ccncc5)n4)CCC3)cn2)cn1 [Example 87, 5-(5-{1-[5-(pyridin-4-yl)-1,2,4-oxadiazol-3-yl]cyclobutyl}pyridin-2-yl)pyrimidin-2-amine]
- IC50 [1]: 1000 nM
- IC50 [2]: 55 nM

Compound: Nc1ncc(-c2ccc(C3(c4noc(-c5cnccc5Cl)n4)CCC3)cn2)cn1 [Example 88, 5-(5-{1-[5-(4-chloropyridin-3-yl)-1,2,4-oxadiazol-3-yl]cyclobutyl}pyridin-2-yl)pyrimidin-2-amine]
- IC50 [1]: 490 nM
- IC50 [2]: 7.3 nM

Compound: Nc1ncc(-c2ccc(C3(c4noc(-c5ccc(N6CCOCC6)nc5)n4)CCC3)cn2)cn1 [Example 89, 5-[5-(1-{5-[6-(morpholin-4-yl)pyridin-3-yl]-1,2,4-oxadiazol-3-yl}cyclobutyl)pyridin-2-yl]pyrimidin-2-amine]
- IC50 [1]: 180 nM
- IC50 [2]: 2.7 nM

Compound: Nc1ncc(-c2ccc(C3(c4noc(-c5cn[nH]c5)n4)CCC3)cn2)cn1 [Example 90, 5-(5-{1-[5-(1H-pyrazol-4-yl)-1,2,4-oxadiazol-3-yl]cyclobutyl}pyridin-2-yl)pyrimidin-2-amine]
- IC50 [1]: 140 nM
- IC50 [2]: 7 nM

Compound: Nc1ncc(-c2ccc(C3(c4noc(-c5ccnc(O)c5)n4)CCC3)cn2)cn1 [Example 91, 4-(3-{1-[6-(2-aminopyrimidin-5-yl)pyridin-3-yl]cyclobutyl}-1,2,4-oxadiazol-5-yl)pyridin-2-ol]
- IC50 [1]: 330 nM
- IC50 [2]: 24 nM

Compound: Nc1ncc(-c2ccc(C3(c4noc(-c5ccncn5)n4)CCC3)cn2)cn1 [Example 92, 5-(5-{1-[5-(pyrimidin-4-yl)-1,2,4-oxadiazol-3-yl]cyclobutyl}pyridin-2-yl)pyrimidin-2-amine]
- IC50 [1]: 2200 nM
- IC50 [2]: 130 nM

Compound: COc1cc(-c2nc(C3(c4ccc(-c5cnc(N)nc5)nc4)CCC3)no2)ccn1 [Example 93, 5-(5-{1-[5-(2-methoxypyridin-4-yl)-1,2,4-oxadiazol-3-yl]cyclobutyl}pyridin-2-yl)pyrimidin-2-amine]
- IC50 [1]: 400 nM
- IC50 [2]: 9.6 nM

Compound: Cc1nc(C)c(-c2nc(C3(c4ccc(-c5cnc(N)nc5)nc4)CCC3)no2)s1 [Example 94, 5-(5-{1-[5-(2,4-dimethyl-1,3-thiazol-5-yl)-1,2,4-oxadiazol-3-yl]cyclobutyl}pyridin-2-yl)pyrimidin-2-amine]
- IC50 [1]: 650 nM
- IC50 [2]: 8.1 nM

Compound: Nc1ncc(-c2ccc(C3(c4noc(-c5ccc[nH]c5=O)n4)CCC3)cn2)cn1 [Example 95, 3-(3-{1-[6-(2-aminopyrimidin-5-yl)pyridin-3-yl]cyclobutyl}-1,2,4-oxadiazol-5-yl)pyridin-2(1H)-one]
- IC50 [1]: > 5000 nM
- IC50 [2]: 29 nM

Compound: COc1ccc(-c2nc(C3(c4ccc(-c5cnc(N)nc5)nc4)CCC3)no2)c(OC)n1 [Example 96, 5-(5-{1-[5-(2,6-dimethoxypyridin-3-yl)-1,2,4-oxadiazol-3-yl]cyclobutyl}pyridin-2-yl)pyrimidin-2-amine]
- IC50 [1]: 1100 nM
- IC50 [2]: 7.3 nM

Compound: Cc1ccc(-c2nc(C3(c4ccc(-c5cnc(N)nc5)nc4)CCC3)no2)c(O)n1 [Example 97, 3-(3-{1-[6-(2-aminopyrimidin-5-yl)pyridin-3-yl]cyclobutyl}-1,2,4-oxadiazol-5-yl)-6-methylpyridin-2-ol]
- IC50 [1]: > 5000 nM
- IC50 [2]: 19 nM

Compound: Nc1ncc(-c2ccc(C3(c4noc(-c5cnco5)n4)CCC3)cn2)cn1 [Example 98, 5-(5-{1-[5-(1,3-oxazol-5-yl)-1,2,4-oxadiazol-3-yl]cyclobutyl}pyridin-2-yl)pyrimidin-2-amine]
- IC50 [1]: > 5000 nM
- IC50 [2]: 110 nM
